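Results reflect a 48-hour exposure of cells in 96-well plates to compound at five concentrations. GI50 = concentration required for 50% inhibition of growth.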 The source made the active and inactive calls. No stated cut-off is given here; in the data, active = GI50 up to about 1.1 µM and inactive = higher.
Assays:
Assay in all cases: NCI anticancer screen, dose series, 48 h
[1] = system: UO-31
[2] = system: MOLT-4
[3] = system: HOP-62
[4] = system: NCI-H522
[5] = system: 786-0
[6] = system: TK-10
[7] = system: A549
[8] = system: SR
[9] = system: OVCAR-3
[10] = system: IGROV-1
[11] = system: SK-MEL-2
[12] = system: K562
[13] = system: SW-620
[14] = system: T47D
[15] = system: OVCAR-5
[16] = system: UACC-257
[17] = system: HCT-116
[18] = system: SNB-19
[19] = system: MDA-MB-231
[20] = system: HCT-15
[21] = system: NCI-H226
[22] = system: RXF 393
[23] = system: HCC 2998
[24] = system: SK-MEL-28
[25] = system: BT-549
[26] = system: Hs-578T
[27] = system: MCF7
[28] = system: MDA-N
[29] = system: COLO 205
[30] = system: SN12C
[31] = system: Malme-3M
[32] = system: HT-29
[33] = system: LOX IMVI
[34] = system: U-251
[35] = system: SF-539
[36] = system: MDA-MB-435
[37] = system: HOP-92
[38] = system: M14
[39] = system: SK-MEL-5
[40] = system: EKVX
[41] = system: HL-60
[42] = system: A498
[43] = system: DU-145
[44] = system: NCI-H23
[45] = system: UACC-62
[46] = system: NCI-H460
[47] = system: SK-OV-3
[48] = system: SF-268
[49] = system: CAKI-1
[50] = system: OVCAR-4
[51] = system: RPMI-8226
[52] = system: CCRF-CEM
[53] = system: SF-295
[54] = system: ACHN
[55] = system: PC-3
[56] = system: KM12
[57] = system: NCI/ADR-RES
[58] = system: OVCAR-8
[59] = system: SNB-75

**Q.** With CSC1=C(C#N)C(=O)N(c2ccc(Cl)cc2)C(=O)C1C#N (centres undefined) as the compound, how does the GI50 [1] read?
**A.** > 100 µM (inactive)

**Q.** What about the GI50 [2] of the same compound?
**A.** 97.5 µM (inactive)

**Q.** And the GI50 [3]?
**A.** > 100 µM (inactive)

**Q.** What about the GI50 [4] of the same compound?
**A.** > 100 µM (inactive)

**Q.** What about the GI50 [5] of the same compound?
**A.** > 100 µM (inactive)

**Q.** What about the GI50 [6] of the same compound?
**A.** > 100 µM (inactive)

**Q.** What about the GI50 [7] of the same compound?
**A.** > 100 µM (inactive)

**Q.** And the GI50 [8]?
**A.** 15.4 µM (inactive)

**Q.** What about the GI50 [9] of the same compound?
**A.** > 100 µM (inactive)

**Q.** What about the GI50 [10] of the same compound?
**A.** > 100 µM (inactive)

**Q.** What about the GI50 [11] of the same compound?
**A.** > 100 µM (inactive)

**Q.** And the GI50 [12]?
**A.** 78.9 µM (inactive)

**Q.** And the GI50 [13]?
**A.** > 100 µM (inactive)

**Q.** What about the GI50 [14] of the same compound?
**A.** 74.8 µM (inactive)

**Q.** And the GI50 [15]?
**A.** > 100 µM (inactive)

**Q.** What about the GI50 [16] of the same compound?
**A.** > 100 µM (inactive)

**Q.** And the GI50 [17]?
**A.** > 100 µM (inactive)

**Q.** And the GI50 [18]?
**A.** > 100 µM (inactive)

**Q.** And the GI50 [19]?
**A.** > 100 µM (inactive)

**Q.** And the GI50 [20]?
**A.** > 100 µM

**Q.** What about the GI50 [21] of the same compound?
**A.** > 100 µM (inactive)

**Q.** And the GI50 [22]?
**A.** > 100 µM (inactive)

**Q.** What about the GI50 [23] of the same compound?
**A.** > 100 µM (inactive)

**Q.** What about the GI50 [24] of the same compound?
**A.** > 100 µM (inactive)

**Q.** What about the GI50 [25] of the same compound?
**A.** > 100 µM (inactive)

**Q.** What about the GI50 [26] of the same compound?
**A.** 77.8 µM (inactive)

**Q.** What about the GI50 [27] of the same compound?
**A.** > 100 µM (inactive)

**Q.** And the GI50 [28]?
**A.** > 100 µM (inactive)

**Q.** And the GI50 [29]?
**A.** > 100 µM (inactive)

**Q.** And the GI50 [30]?
**A.** > 100 µM (inactive)

**Q.** What about the GI50 [31] of the same compound?
**A.** > 100 µM (inactive)

**Q.** And the GI50 [32]?
**A.** > 100 µM (inactive)

**Q.** And the GI50 [33]?
**A.** > 100 µM (inactive)

**Q.** What about the GI50 [34] of the same compound?
**A.** > 100 µM (inactive)

**Q.** And the GI50 [35]?
**A.** > 100 µM (inactive)

**Q.** And the GI50 [36]?
**A.** > 100 µM (inactive)

**Q.** And the GI50 [37]?
**A.** 28.9 µM (inactive)

**Q.** And the GI50 [38]?
**A.** 96.4 µM (inactive)

**Q.** And the GI50 [39]?
**A.** > 100 µM (inactive)

**Q.** And the GI50 [40]?
**A.** > 100 µM (inactive)

**Q.** And the GI50 [41]?
**A.** > 100 µM (inactive)

**Q.** And the GI50 [42]?
**A.** 74.6 µM (inactive)

**Q.** And the GI50 [43]?
**A.** > 100 µM (inactive)

**Q.** What about the GI50 [44] of the same compound?
**A.** > 100 µM (inactive)

**Q.** What about the GI50 [45] of the same compound?
**A.** > 100 µM (inactive)

**Q.** And the GI50 [46]?
**A.** > 100 µM (inactive)

**Q.** And the GI50 [47]?
**A.** > 100 µM (inactive)

**Q.** What about the GI50 [48] of the same compound?
**A.** > 100 µM (inactive)

**Q.** And the GI50 [49]?
**A.** > 100 µM (inactive)

**Q.** And the GI50 [50]?
**A.** > 100 µM (inactive)

**Q.** And the GI50 [51]?
**A.** 33.8 µM (inactive)

**Q.** What about the GI50 [52] of the same compound?
**A.** 44.9 µM (inactive)

**Q.** And the GI50 [53]?
**A.** 87.1 µM (inactive)

**Q.** What about the GI50 [54] of the same compound?
**A.** > 100 µM (inactive)

**Q.** What about the GI50 [55] of the same compound?
**A.** > 100 µM (inactive)

**Q.** How did the GI50 [1] turn out when COc1cccc(Cc2cc(=O)c3ccc(C)nc3[nH]2)c1 was run?
**A.** > 100 µM (inactive)

**Q.** And the GI50 [2]?
**A.** 41.3 µM (inactive)

**Q.** What about the GI50 [3] of the same compound?
**A.** > 100 µM (inactive)

**Q.** And the GI50 [4]?
**A.** 13.2 µM (inactive)

**Q.** What about the GI50 [5] of the same compound?
**A.** > 100 µM (inactive)

**Q.** What about the GI50 [6] of the same compound?
**A.** > 100 µM (inactive)

**Q.** And the GI50 [7]?
**A.** > 100 µM (inactive)

**Q.** What about the GI50 [8] of the same compound?
**A.** 35.8 µM (inactive)

**Q.** And the GI50 [9]?
**A.** > 100 µM (inactive)

**Q.** What about the GI50 [10] of the same compound?
**A.** > 100 µM (inactive)

**Q.** And the GI50 [11]?
**A.** > 100 µM (inactive)

**Q.** And the GI50 [12]?
**A.** 86.7 µM (inactive)

**Q.** And the GI50 [13]?
**A.** > 100 µM (inactive)

**Q.** And the GI50 [56]?
**A.** > 100 µM (inactive)

**Q.** And the GI50 [14]?
**A.** > 100 µM (inactive)

**Q.** What about the GI50 [15] of the same compound?
**A.** > 100 µM (inactive)

**Q.** And the GI50 [16]?
**A.** > 100 µM (inactive)

**Q.** And the GI50 [17]?
**A.** > 100 µM (inactive)

**Q.** What about the GI50 [18] of the same compound?
**A.** > 100 µM (inactive)

**Q.** What about the GI50 [19] of the same compound?
**A.** > 100 µM (inactive)

**Q.** And the GI50 [20]?
**A.** > 100 µM

**Q.** What about the GI50 [57] of the same compound?
**A.** > 100 µM (inactive)

**Q.** And the GI50 [21]?
**A.** > 100 µM (inactive)

**Q.** And the GI50 [22]?
**A.** > 100 µM (inactive)

**Q.** What about the GI50 [24] of the same compound?
**A.** > 100 µM (inactive)

**Q.** What about the GI50 [25] of the same compound?
**A.** 94.8 µM (inactive)

**Q.** And the GI50 [26]?
**A.** 60.1 µM (inactive)

**Q.** And the GI50 [27]?
**A.** > 100 µM (inactive)

**Q.** What about the GI50 [28] of the same compound?
**A.** > 100 µM (inactive)

**Q.** What about the GI50 [29] of the same compound?
**A.** > 100 µM (inactive)

**Q.** And the GI50 [30]?
**A.** > 100 µM (inactive)

**Q.** What about the GI50 [31] of the same compound?
**A.** 57.7 µM (inactive)

**Q.** And the GI50 [32]?
**A.** > 100 µM (inactive)

**Q.** And the GI50 [33]?
**A.** > 100 µM (inactive)

**Q.** What about the GI50 [34] of the same compound?
**A.** > 100 µM (inactive)

**Q.** What about the GI50 [36] of the same compound?
**A.** > 100 µM (inactive)

**Q.** And the GI50 [37]?
**A.** > 100 µM (inactive)

**Q.** What about the GI50 [38] of the same compound?
**A.** > 100 µM (inactive)

**Q.** What about the GI50 [58] of the same compound?
**A.** > 100 µM (inactive)

**Q.** And the GI50 [39]?
**A.** > 100 µM (inactive)

**Q.** And the GI50 [40]?
**A.** > 100 µM (inactive)

**Q.** And the GI50 [41]?
**A.** 55.5 µM (inactive)

**Q.** What about the GI50 [42] of the same compound?
**A.** 73.5 µM (inactive)

**Q.** And the GI50 [43]?
**A.** > 100 µM (inactive)

**Q.** And the GI50 [44]?
**A.** > 100 µM (inactive)

**Q.** What about the GI50 [45] of the same compound?
**A.** > 100 µM (inactive)

**Q.** What about the GI50 [46] of the same compound?
**A.** > 100 µM (inactive)

**Q.** What about the GI50 [47] of the same compound?
**A.** > 100 µM (inactive)

**Q.** What about the GI50 [48] of the same compound?
**A.** > 100 µM (inactive)

**Q.** And the GI50 [49]?
**A.** > 100 µM (inactive)

**Q.** What about the GI50 [51] of the same compound?
**A.** 48.6 µM (inactive)

**Q.** And the GI50 [52]?
**A.** > 100 µM (inactive)

**Q.** What about the GI50 [53] of the same compound?
**A.** > 100 µM (inactive)

**Q.** What about the GI50 [59] of the same compound?
**A.** 93.8 µM (inactive)
